As a reminder, the pIC50 is the negative decadic logarithm of the IC50, by convention in mol/L.

Data on 25 molecules can be found in patent US12336981B2, “Compounds and compositions for the inhibition of NAMPT” (Valo Health, Inc., priority 2010, dated 2025).

The target in experiment [1] is T1, NAMPT (Homo sapiens, UniProt P43490).
T1 construct: His tag; host or cells: E. coli
As to the kind of experiment: Biochemical inhibition assay: NAMPT enzymatic reaction, NMN quantified by mass spectrometry. Particulars: NAMPT enzymatic reaction; read-out: Biochem IC50. A digest of the protocol:
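Inhibition of E. coli-expressed His-tagged human NAMPT, measured as NMN formation by mass spectrometry after a 30 min room-temperature reaction containing 1 μM NAM, 100 μM PRPP and 2.5 mM ATP.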

Experiment [2] concerns A2780 cells. The experiment is described as follows: In-vitro cell proliferation assay (SRB), A2780 cells. The format is cell-based. Particulars: Homo sapiens, A2780, 72 h, A2780 cells, 72 hours, read-out: A2780 IC50. A digest of the protocol: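 Growth inhibition was derived from background-corrected SRB absorbance (570 nm), measured on cells fixed in 6% TCA after three days of compound treatment under 5% CO2 at 37° C.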

pIC50: −log10 of the molar value. Where two headings read alike, the source gives them in different places.

T1 sequence (P43490 whole entry): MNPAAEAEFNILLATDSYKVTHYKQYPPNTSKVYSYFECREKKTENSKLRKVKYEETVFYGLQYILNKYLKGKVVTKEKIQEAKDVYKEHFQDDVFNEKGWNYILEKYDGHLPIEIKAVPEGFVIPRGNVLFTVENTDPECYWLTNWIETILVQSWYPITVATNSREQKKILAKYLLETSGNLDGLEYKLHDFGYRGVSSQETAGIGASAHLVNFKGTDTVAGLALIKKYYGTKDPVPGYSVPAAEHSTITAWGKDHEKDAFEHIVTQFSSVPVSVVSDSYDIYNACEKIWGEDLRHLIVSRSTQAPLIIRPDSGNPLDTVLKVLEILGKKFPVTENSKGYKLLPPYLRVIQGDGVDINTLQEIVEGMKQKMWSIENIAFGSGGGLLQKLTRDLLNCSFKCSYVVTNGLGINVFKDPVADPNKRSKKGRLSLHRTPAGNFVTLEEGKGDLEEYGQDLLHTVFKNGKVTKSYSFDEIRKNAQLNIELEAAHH

Regarding `Cc1cccc(S(=O)(=O)c2ccc(CNC(=O)c3cc4cnccc4[nH]3)cc2)c1` [N-({4-[(3-methylbenzene)sulfonyl]phenyl}methyl)-1H-pyrrolo[3,2-c]pyridine-2-carboxamide], the results for the pIC50 in experiment [1] and in experiment [2] (SRB assay) were 8.05 and 8.40, respectively.
As for `Cc1cccc(S(=O)(=O)c2ccc(CNC(=O)c3cc4ccncc4o3)cc2)c1` [N-({4-[(3-methylbenzene)sulfonyl]phenyl}methyl)furo[2,3-c]pyridine-2-carboxamide], the negative-log IC50 (pIC50) in experiment [1] was 8.64; in experiment [2] (SRB), 8.28.
In the same order, the values of `Cc1cccc(S(=O)(=O)c2ccc(CNC(=O)c3ccc4nccn4c3)cc2)c1` [N-({4-[(3-methylbenzene)sulfonyl]phenyl}methyl)imidazo[1,2-a]pyridine-6-carboxamide] are 8.09 and 8.19.
As for `Cc1cccc(S(=O)(=O)c2ccc(CNC(=O)c3cc4ccncc4s3)cc2)c1` [N-({4-[(3-methylbenzene)sulfonyl]phenyl}methyl)thieno[2,3-c]pyridine-2-carboxamide], the pIC50 was 8.40 in experiment [1] and 8.64 in experiment [2] (SRB assay).
Take `O=C(NCc1ccc(S(=O)(=O)c2cccc(-c3ccccc3)c2)cc1)c1ccc2ncsc2c1` [N-({4-[(3-phenylbenzene)sulfonyl]phenyl}methyl)-1,3-benzothiazole-6-carboxamide]: the pIC50 in experiment [1] is 7.73; in experiment [2] (SRB), 5.00 to 6.00.
As to `O=C(NCc1ccc(S(=O)(=O)c2cccc(-c3ccccc3)c2)cc1)c1cc2ccncc2o1` [N-({4-[(3-phenylbenzene)sulfonyl]phenyl}methyl)furo[2,3-c]pyridine-2-carboxamide], the results for the pIC50 in experiment [1] and in experiment [2] (SRB) were 7.86 and 7.63, respectively.
In the same order, the values of `O=C(NCc1ccc(S(=O)(=O)CCCc2ccccc2)cc1)c1cc2cnccc2[nH]1` [N-({4-[(3-phenylpropane)sulfonyl]phenyl}methyl)-1H-pyrrolo[3,2-c]pyridine-2-carboxamide] are 7.85 and 7.11.
The like results for `CCCOc1cccc(S(=O)(=O)c2ccc(CNC(=O)c3cnc4[nH]ncc4c3)cc2)c1` [N-({4-[(3-propoxybenzene)sulfonyl]phenyl}methyl)-1H-pyrazolo[3,4-b]pyridine-5-carboxamide] were, in that order, 7.52 and 7.39.
In the same order, the values of `NS(=O)(=O)c1cccc(S(=O)(=O)c2ccc(CNC(=O)c3cnc4[nH]ncc4c3)cc2)c1` [N-({4-[(3-sulfamoylbenzene)sulfonyl]phenyl}methyl)-1H-pyrazolo[3,4-b]pyridine-5-carboxamide] are 7.52 and 6.00 to 7.00.
Take `COc1cc(F)c(F)cc1S(=O)(=O)c1ccc(CNC(=O)c2cc3cnccc3[nH]2)cc1` [N-({4-[(4,5-difluoro-2-methoxybenzene)sulfonyl]phenyl}methyl)-1H-pyrrolo[3,2-c]pyridine-2-carboxamide]: the pIC50 in experiment [1] was 7.85; in experiment [2] (SRB assay), 8.22.
`COc1cc(F)c(F)cc1S(=O)(=O)c1ccc(CNC(=O)c2ccc3nccn3c2)cc1` [N-({4-[(4,5-difluoro-2-methoxybenzene)sulfonyl]phenyl}methyl)imidazo[1,2-a]pyridine-6-carboxamide]: the pIC50 in experiment [1] was 7.55; in experiment [2] (SRB), 8.17.
Take `COc1cc(F)c(F)cc1S(=O)(=O)c1ccc(CNC(=O)c2cc3ccncc3s2)cc1` [N-({4-[(4,5-difluoro-2-methoxybenzene)sulfonyl]phenyl}methyl)thieno[2,3-c]pyridine-2-carboxamide]: the pIC50 is 8.30 in experiment [1] and 8.54 in experiment [2] (SRB assay).
`CC(=O)c1ccc(S(=O)(=O)c2ccc(CNC(=O)c3cc4ccncc4s3)cc2)cc1` [N-({4-[(4-acetylbenzene)sulfonyl]phenyl}methyl)thieno[2,3-c]pyridine-2-carboxamide]: the pIC50 in experiment [1] was 8.40; in experiment [2] (SRB assay), 8.60.
On to `CCCCOc1ccc(S(=O)(=O)c2ccc(CNC(=O)c3cnc4[nH]ncc4c3)cc2)c(C)c1` [N-({4-[(4-butoxy-2-methylbenzene)sulfonyl]phenyl}methyl)-1H-pyrazolo[3,4-b]pyridine-5-carboxamide], for which the pIC50 in experiment [1] was 7.15; in experiment [2] (SRB), 7.16.
In the same order, the values of `CCCCOc1ccc(S(=O)(=O)c2ccc(CNC(=O)c3cc4ccncc4s3)cc2)cc1F` [N-({4-[(4-butoxy-3-fluorobenzene)sulfonyl]phenyl}methyl)thieno[2,3-c]pyridine-2-carboxamide] are 8.33 and 7.90.
As to `CCCCOc1ccc(S(=O)(=O)c2ccc(CNC(=O)c3cnc4[nH]ncc4c3)cc2)cc1` [N-({4-[(4-butoxybenzene)sulfonyl]phenyl}methyl)-1H-pyrazolo[3,4-b]pyridine-5-carboxamide], the pIC50 was 7.56 in experiment [1] and 7.65 in experiment [2] (SRB).
The like results for `CCCCOc1ccc(S(=O)(=O)c2ccc(CNC(=O)c3cc4cnccc4[nH]3)cc2)cc1` [N-({4-[(4-butoxybenzene)sulfonyl]phenyl}methyl)-1H-pyrrolo[3,2-c]pyridine-2-carboxamide] were, in that order, 8.08 and 7.77.
In the same order, the values of `CCCCOc1ccc(S(=O)(=O)c2ccc(CNC(=O)c3cc4ccncc4o3)cc2)cc1` [N-({4-[(4-butoxybenzene)sulfonyl]phenyl}methyl)furo[2,3-c]pyridine-2-carboxamide] are 8.21 and 7.89.
The like results for `CCCCc1ccc(S(=O)(=O)c2ccc(CNC(=O)c3cnc4[nH]ncc4c3)cc2)cc1` [N-({4-[(4-butylbenzene)sulfonyl]phenyl}methyl)-1H-pyrazolo[3,4-b]pyridine-5-carboxamide] were, in that order, 7.15 and 7.16.
With `CCCCc1ccc(S(=O)(=O)c2ccc(CNC(=O)c3cc4ccncc4o3)cc2)cc1` [N-({4-[(4-butylbenzene)sulfonyl]phenyl}methyl)furo[2,3-c]pyridine-2-carboxamide], the pIC50 was 7.74 in experiment [1] and 7.58 in experiment [2] (SRB).
Turning to `COc1cc(Cl)c(C)cc1NS(=O)(=O)c1ccc(CNC(=O)c2cc3cnccc3[nH]2)cc1` [N-({4-[(4-chloro-2-methoxy-5-methylphenyl)sulfamoyl]phenyl}methyl)-1H-pyrrolo[3,2-c]pyridine-2-carboxamide], the pIC50 is 5.11 in experiment [1] and 4.74 in experiment [2] (SRB assay).
The like results for `COc1cc(Cl)ccc1S(=O)(=O)c1ccc(CNC(=O)c2cc3cnccc3[nH]2)cc1` [N-({4-[(4-chloro-2-methoxybenzene)sulfonyl]phenyl}methyl)-1H-pyrrolo[3,2-c]pyridine-2-carboxamide] were, in that order, 7.66 and 8.52.
With `COc1cc(Cl)ccc1S(=O)(=O)c1ccc(CNC(=O)c2ccc3nccn3c2)cc1` [N-({4-[(4-chloro-2-methoxybenzene)sulfonyl]phenyl}methyl)imidazo[1,2-a]pyridine-6-carboxamide], the pIC50 in experiment [1] is 7.73; in experiment [2] (SRB) it was 7.90.
For `COc1cc(Cl)ccc1S(=O)(=O)c1ccc(CNC(=O)c2cc3ccncc3s2)cc1` [N-({4-[(4-chloro-2-methoxybenzene)sulfonyl]phenyl}methyl)thieno[2,3-c]pyridine-2-carboxamide], the results for the pIC50 in experiment [1] and in experiment [2] (SRB assay) were 8.00 and 8.42, respectively.
Consider `Cc1cc(Cl)ccc1S(=O)(=O)c1ccc(CNC(=O)c2cnc3[nH]ncc3c2)cc1` [N-({4-[(4-chloro-2-methylbenzene)sulfonyl]phenyl}methyl)-1H-pyrazolo[3,4-b]pyridine-5-carboxamide], for which the pIC50 in experiment [1] is 7.11; in experiment [2] (SRB), 7.23.
